Measured values reported in patent US9308179B2, “Long circulating nanoparticles for sustained release of therapeutic agents” (BIND Therapeutics, Inc., priority 2008, dated 2016).
Where two headings read alike, the source gives them in different places. Marks after values point to notes of the source that are not given here.

Experiments:
[1] = Pharmacokinetics of docetaxel nanoparticles in primates; type: in vivo, non human primates; set-up: Cmax/D / AUC/D: unit not given beside the values; details: for AUC / Cl / Vz / half-life / Cmax: 30 minute IV infusion; for half-life: in vivo
Experimental: 1 male and 1 female were used per dose group. The dosing day was 1 day and the formulations were administered by 30 minute IV infusion at 25 mg/m^2 docetaxel or 50 mg/m^2 docetaxel (animals were randomized and then dosed with 50 mg/m2 on day 29 and PK, hematology and clinical chemistry were measured for 21 days). At the end of the study, PK, hematology and clinical chemistry collected over a 21 day period were assessed. FIG. 12 depicts the results of male (M) and female (F) PNP.

[2] = tested on: human LNCaP prostate cancer cells; assay: Anti-tumor activity after repeated doses in human tumor xenograft model (LNCaP); type: in vivo, SCID mice; details: Q2D for four doses, eight day holiday, another four doses; FIG. 7
Experimental: Male severe combined immunodeficiency (SCID) mice were subcutaneously inoculated with human LNCaP prostate cancer cells. Three to four weeks after inoculation, the mice were assigned to different treatment groups such that the average tumor volume in each group was 250 mm^3. Subsequently, the mice were treated every other day (Q2D) for four doses, with an eight day holiday, followed by another four doses at the Q2D schedule.

[3] = Tumor docetaxel concentration after a single dose in human tumor xenograft model (LNCaP); type: in vivo, SCID mice; details: male, SCID, mouse
Experimental: Male severe combined immunodeficiency (SCID) mice were subcutaneously inoculated with human LNCaP prostate cancer cells. Three to four weeks after inoculation, the mice were assigned to different treatment groups such that the average tumor volume in each group was 300 mm^3. At this time, a single intravenous (IV) dose of 50 mg/kg docetaxel was administered as either docetaxel encapsulated in nanoparticles or conventional docetaxel. The test subjects were sacrificed 2 hour or 12 hour post-dose. The tumors from each group were excised and assayed for docetaxel using liquid chromatography-mass spectrometry (LC-MS).

[4] = Acute dose range finding study in Sprague-Dawley rats; type: in vivo; details: 7 days
Experimental: Sixty Sprague-Dawley rats (30/sex) were assigned to 10 dose groups (3 rats/sex/group) and were administered a single dose of either docetaxel encapsulated in nanoparticles (5.7, 7.5, 10, 15 or 30 mg/kg body weight) or conventional docetaxel (5.7, 7.5, 10, 15 or 30 mg/kg body weight).

[5] = Single dose pharmacokinetic study in Sprague-Dawley rats; type: in vivo; details: male, rat
Experimental: Six- to eight-week old male Sprague-Dawley rats were administered a single bolus dose (5 mg/kg of docetaxel) of docetaxel encapsulated in nanoparticles or conventional docetaxel via a tail vein. The dose groups consisted of six rats each. Blood was drawn at 0.083, 0.5, 1, 2, 3, 4, 6, and 24 hours post-dosing and processed to plasma. The concentration of total docetaxel in plasma was measured by a liquid chromatography-mass spectrometry (LC-MS) method following extraction with methyl tert-butyl ether (MTBE).

[6] = 5 mg/kg, cited from earlier work
[7] = tested on: MX-1 breast tumors; assay: Tumor accumulation of docetaxel nanoparticles in MX-1 breast tumors; type: in vivo, mice; details: 10 mg/kg, 24 hours after injection, LC/MS/MS
Experimental: Mice were then injected with 10 mg/kg of the test article, then euthanized 24 hours later and the tumors were removed and analyzed for docetaxel content using LC/MS/MS. Results are depicted in FIG. 12.

[8] = Tissue distribution of radioactivity in rats after IV administration; type: in vivo, Sprague-Dawley rats
Experimental: Six- to eight-week old male Sprague-Dawley rats were administered a single bolus intravenous dose of one of the following: (1) docetaxel encapsulated in nanoparticles in which the ligand of the PLA-PEG-lys(urea)glu targeting polymer was ^14C-labeled, (2) docetaxel encapsulated in nanoparticles in which the encapsulated docetaxel was ^14C-labeled, (3) ^14C-labeled conventional docetaxel.
Blood was drawn at 1, 3, 6, 12, and 24 hours post-dosing and processed to plasma. Immediately following blood collection, the rats were euthanized by CO2 asphyxiation and tissues were immediately collected, blotted, weighed, and frozen on dry ice. Tissue samples were stored frozen (approximately −70° C.) until analysis for radioactivity by liquid scintillation (LS) counting.

[9] = plasma, 5 mg/kg single IV bolus

Work on CC(=O)O[C@@]12CO[C@@H]1C[C@H](O)[C@@]1(C)C(=O)[C@H](O)C3=C(C)[C@@H](OC(=O)[C@H](O)[C@@H](NC(=O)OC(C)(C)C)c4ccccc4)C[C@@](O)([C@@H](OC(=O)c4ccccc4)[C@H]21)C3(C)C [Conventional Docetaxel, docetaxel] yielded an AUC/D ([1]; 25 mg/m2, F) of 109, a Cmax/D ([1]; 25 mg/m2, F) of 23.8 and an AUC ([1]; 25 mg/m2, F) of 2714 ng·h/mL. It also gave a Cl ([1]; 25 mg/m2, F) of 9213 mL/hr/m2, a Vz ([1]; 25 mg/m2, F) of 412186 mL/m2 and an AUC/D ([1]; 25 mg/m2, M) of 102. It also gave a Cmax/D ([1]; 25 mg/m2, M) of 14.6, a Cl ([1]; 25 mg/m2, M) of 9794 mL/hr/m2 and a Vz ([1]; 25 mg/m2, M) of 253783 mL/m2. It also gave an AUC/D ([1]; 50 mg/m2, F) of 72, a Cmax/D ([1]; 50 mg/m2, F) of 16.7 and an AUC ([1]; 50 mg/m2, F) of 3599 ng·h/mL. It also gave a Cl ([1]; 50 mg/m2, F) of 13893 mL/hr/m2, a Vz ([1]; 50 mg/m2, F) of 788340 mL/m2 and an AUC/D ([1]; 50 mg/m2, M) of 76.5. It also gave a Cmax/D ([1]; 50 mg/m2, M) of 24.2, a Cl ([1]; 50 mg/m2, M) of 13073 mL/hr/m2 and a Vz ([1]; 50 mg/m2, M) of 743682 mL/m2. For the same molecule, the half-life ([1]; female, monkey, 25 mg/m2, F) was 31 h, the half-life ([1]; female, monkey, 50 mg/m2, F) was 39 h and the Cmax ([1]; female, monkey, plasma, 25 mg/m2, F) was 596 ng/mL. For the same molecule, the Cmax ([1]; female, monkey, plasma, 50 mg/m2, F) was 835 ng/mL, the half-life ([1]; male, monkey, 25 mg/m2, M) was 18 h and the half-life ([1]; male, monkey, 50 mg/m2, M) was 39 h. For the same molecule, the Cmax ([1]; male, monkey, plasma, 25 mg/m2, M) was 364 ng/mL, the AUC ([1]; male, monkey, plasma, 25 mg/m2, M, read-out: AUC) was 2550 ng·h/mL and the Cmax ([1]; male, monkey, plasma, 50 mg/m2, M) was 1210 ng/mL. The AUC ([1]; male, monkey, plasma, 50 mg/m2, M, read-out: AUC) was 3280 ng·h/mL, the “effect on tumor volume” value [2] was “appreciable reduction in tumor volume” and the concentration at 2 h ([3]; 2 h after single IV dose of 50 mg/kg docetaxel) was 12900 ± 7900 ng/g. The concentration at 12 h ([3]; 12 h after single IV dose of 50 mg/kg docetaxel) was 3600 ± 2100 ng/g, the “survival to scheduled necropsy” value ([4]; 5.7-30 mg/kg single dose) was “All test subjects survived” and the “piloerection, female rats affected” value ([4]; female, Sprague-Dawley, rat, in vivo, 10 mg/kg) was 1/9. For the same molecule, the “piloerection, male rats affected” value ([4]; male, Sprague-Dawley, rat, in vivo, 10 mg/kg) was 5/9, the Cmax ([5]; 5 mg/kg single IV bolus, total docetaxel in plasma) was 600 ng/mL and the AUC(0-inf) [5, 9] was 623 ng·h/mL. It also gave a clearance [5, 9] of 38.8 mL/min/kg, a tmax ([5]; plasma, 5 mg/kg single IV bolus, tmax equals the first sampling time) of 5 min and a half-life ([5]; plasma, iv, 5 mg/kg) of 4.4 h. For the same molecule, the “AUC0-∞” value [6] was 910 ng·h/mL, the CL [6] was 91.7 mL/min/kg and the Cmax [6] was 4,100 ng/mL. The t1/2 ([6]; study duration was 6 hours) was 0.8^b h, the tmax ([6]; tmax equals the first sampling time) was 2 min and the “percent of injected dose in the tumor” value [7] was 3%.
In the case of CC(=O)O[C@@]12CO[C@@H]1C[C@H](O)[C@@]1(C)C(=O)[C@H](O)C3=C(C)[C@@H](OC(=O)[C@H](O)[C@@H](NC(=O)OC(C)(C)C)c4ccccc4)C[C@@](O)([C@@H](OC(=O)c4ccccc4)[C@H]21)C3(C)C [Conventional ^14C-Docetaxel, docetaxel], the “Radioactivity in Bone Marrow” value ([8]; 1 h after IV administration) is reported as 97 ± 4.2 nCi/g, the “Radioactivity in Heart” value ([8]; 1 h after IV administration) is reported as 71 ± 2.5 nCi/g and the “Radioactivity in Large Intestine” value ([8]; 1 h after IV administration) is reported as 54 ± 3.6 nCi/g. The “Radioactivity in Liver” value ([8]; 1 h after IV administration) was 78 ± 15 nCi/g, the “Radioactivity in Lungs” value ([8]; 1 h after IV administration) was 82 ± 9.6 nCi/g and the “Radioactivity in Plasma” value ([8]; 1 h after IV administration) was 4.9 ± 0.4 nCi/mL. The “Radioactivity in Small Intestine” value ([8]; 1 h after IV administration) was 517 ± 99 nCi/g, the “Radioactivity in Spleen” value ([8]; 1 h after IV administration) was 100 ± 9.4 nCi/g and the “Radioactivity in Bone Marrow” value ([8]; 3 h after IV administration) was 83 ± 1.0 nCi/g. For the same molecule, the “Radioactivity in Heart” value ([8]; 3 h after IV administration) was 39 ± 1.5 nCi/g, the “Radioactivity in Large Intestine” value ([8]; 3 h after IV administration) was 166 ± 37 nCi/g and the “Radioactivity in Liver” value ([8]; 3 h after IV administration) was 49 ± 7.3 nCi/g. For the same molecule, the “Radioactivity in Lungs” value ([8]; 3 h after IV administration) was 66 ± 0.7 nCi/g, the “Radioactivity in Plasma” value ([8]; 3 h after IV administration) was 1.9 ± 0.2 nCi/mL and the “Radioactivity in Small Intestine” value ([8]; 3 h after IV administration) was 122 ± 43 nCi/g. For the same molecule, the “Radioactivity in Spleen” value ([8]; 3 h after IV administration) was 81 ± 7.5 nCi/g, the “Radioactivity in Bone Marrow” value ([8]; 6 h after IV administration) was 78 ± 1.9 nCi/g and the “Radioactivity in Heart” value ([8]; 6 h after IV administration) was 33 ± 1.3 nCi/g. For the same molecule, the “Radioactivity in Large Intestine” value ([8]; 6 h after IV administration) was 185 ± 82 nCi/g, the “Radioactivity in Liver” value ([8]; 6 h after IV administration) was 49 ± 11 nCi/g and the “Radioactivity in Lungs” value ([8]; 6 h after IV administration) was 993 ± 1605 nCi/g. For the same molecule, the “Radioactivity in Plasma” value ([8]; 6 h after IV administration) was 1.6 ± 0.5 nCi/mL, the “Radioactivity in Small Intestine” value ([8]; 6 h after IV administration) was 62 ± 5.2 nCi/g and the “Radioactivity in Spleen” value ([8]; 6 h after IV administration) was 82 ± 4.6 nCi/g. The “Radioactivity in Bone Marrow” value ([8]; 12 h after IV administration) was 62 ± 9.4 nCi/g, the “Radioactivity in Heart” value ([8]; 12 h after IV administration) was 28 ± 1.7 nCi/g and the “Radioactivity in Large Intestine” value ([8]; 12 h after IV administration) was 83 ± 18 nCi/g. The “Radioactivity in Liver” value ([8]; 12 h after IV administration) was 55 ± 7.4 nCi/g, the “Radioactivity in Lungs” value ([8]; 12 h after IV administration) was 1438 ± 1218 nCi/g and the “Radioactivity in Plasma” value ([8]; 12 h after IV administration) was 0.8 ± 0.2 nCi/mL. The “Radioactivity in Small Intestine” value ([8]; 12 h after IV administration) was 41 ± 4.9 nCi/g, the “Radioactivity in Spleen” value ([8]; 12 h after IV administration) was 77 ± 11 nCi/g and the “Radioactivity in Bone Marrow” value ([8]; 24 h after IV administration) was 41 ± 6.8 nCi/g. The “Radioactivity in Heart” value ([8]; 24 h after IV administration) was 24 ± 2.6 nCi/g, the “Radioactivity in Large Intestine” value ([8]; 24 h after IV administration) was 48 ± 34 nCi/g and the “Radioactivity in Liver” value ([8]; 24 h after IV administration) was 43 ± 4.0 nCi/g. The “Radioactivity in Lungs” value ([8]; 24 h after IV administration) was 962 ± 99 nCi/g, the “Radioactivity in Plasma” value ([8]; 24 h after IV administration) was 0.6 ± 0.1 nCi/mL and the “Radioactivity in Small Intestine” value ([8]; 24 h after IV administration) was 47 ± 19 nCi/g. The “Radioactivity in Spleen” value ([8]; 24 h after IV administration) was 85 ± 8.6 nCi/g.
